Data published in patent US20100189688A1, “Dose forms comprising VX-950 and their dosage regimen” (priority 2007, published 2010).
In brackets after ≈: the same amount, converted by molar mass. Several values for one entry are separate records, joined by “and”; a condition that tells them apart may be missing. Identical values can stand only once. Marks after values point to notes of the source that are not given here.

Legend:
[1] = Single-dose escalation tolerance and pharmacokinetics study in healthy male volunteers (Example 3); conditions: single doses 25 mg to 1250 mg
Description: (§2) A dose escalation scheme was used that combined dose doubling and modified Fibonacci to be aggressive in the lower dose range and conservative in the higher dose range.
(§3) A pharmacokinetics analysis was performed using the statistical moment approach.

[2] = test system: IFN-β promoter activity; assay: IFN-β promoter luciferase activity in Sendai virus stimulated Huh7 cells expressing HCV protease; conditions: 10 μM VX-950, Huh7 cells, Sendai virus stimulation, 16 hours post-infection
[3] = clinical; conditions: male, human, in vivo, po
Description: as §2, §3

[4] = test system: ALT (alanine aminotransferase); assay: 14-day multiple-dose study: serum ALT / AST levels; format: in vivo, human
From the text: The serum alanine aminotransferase (ALT) level can be measured using commercially available methods. Mean ALT levels, elevated at baseline, decreased during dosing in all groups (FIG. 6). Mean ALT levels increased, returned toward baseline, in all dose groups during follow up.

[5] = Multiple-dose study (Example 5): tolerability and VX-950 plasma trough levels; format: in vivo, human
Description: (§1) All other 34 subjects completed the study.
The assay for determined VX-950 concentration in human plasma was performed by methods well known in the art. See, e.g., Wasley, A. et al., Semin. Liver Dis., 20:1-16, 2000; Alter, H. J. et al., Semin. Liver Dis., 20: 17-35, 2000; Brown, R. S. Jr. et al., Liver Transpl., 9: S10-S13, 2003; DeFrancesco, R. et al., Nature, 436(7053): 953-960, 2005; Bowen, D. G. et al., J. Hepatol., 42: 408-417, 2005; Hoofnagle, J. H., Hepatology, 36: S21-S29, 2002, Brown, R. S. Jr. et al., Nature, 436 (7053): 973-978, 2005; and Chisari, F. V., Nature, 436(7053): 930-932, 2005.
Sample Preparation: 100 μL of plasma and 100 μL of internal standard working solution (or acetonitrile for blank samples) were added to an extraction tube. After vortex mixing for 30 seconds, 500 μL of toluene was added and extraction was performed by vortex mixing for 30 seconds. After centrifugation at 3000 rpm at 4° C. for 5 minutes, the aqueous layer was frozen in a mixture of acetone and dry ice and the organic layer was transferred to another extraction tube. 50 μL of 2,2-dimethoxypropane was added and the samples were evaporated to dryness under nitrogen at approximately 30° C. The residue was re-dissolved in 300 μL of a mixture of heptane and acetone (90:10, v/v) [or a mixture of heptane and THF (80:20, v/v)] by vortex mixing for 60 seconds. […]

[6] = test system: genotype 1 hepatitis C; assay: Phase 1b 14-day study of VX-950, VX-950/Peg-IFN-2a or Peg-IFN-2a followed by Peg-IFN-2a/RBV: HCV RNA and SVR (Example 9); conditions: for patients who achieved SVR: 14 days of VX-950 (alone or in combination with PEG-IFN) then PEG-IFN with RBV
[7] = Predicted human liver exposure relative to replicon assay IC50/IC90; conditions: in the dose range studied
[8] = target: HCV NS3/4A protease (Hepatitis C virus genotype 1a, UniProt P27958); assay: In vitro cleavage of TRIF by HCV NS3 protease; format: biochemical; conditions: 10 μM VX-950, tNS3 0-4 μM
Chain of HCV NS3/4A protease (P27958 1027-1208, other chains not shown): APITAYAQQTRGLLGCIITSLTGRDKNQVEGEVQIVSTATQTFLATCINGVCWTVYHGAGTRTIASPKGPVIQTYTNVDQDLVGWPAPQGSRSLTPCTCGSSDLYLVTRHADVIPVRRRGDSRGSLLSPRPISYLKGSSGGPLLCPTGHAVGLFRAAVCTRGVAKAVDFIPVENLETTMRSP
Description: The 35S methionine labeled coupled in vitro transcription/translation product of TRIF protein (as a substrate) was incubated with increasing concentration of tNS3 protease enzyme ranging from 0-4 μM either in the presence (Circles) or absence (Squares) of 10 μM VX-950, followed by SDS-PAGE and exposure to phosphorimager.

[9] = test system: neopterin; assay: 14-day multiple-dose study: serum neopterin (ELISA)
[10] = test system: infectious virus; assay: Infectious virus assay; format: cell-based
[11] = human, in vivo
Description: as §2, §3

[12] = in vivo
[13] = test system: WT-HCV protease-SEAP; conditions: SCID mice expressing WT-HCV protease-SEAP; cited from earlier work
[14] = test system: hepatitis C virus (HCV) replicon; assay: HCV replicon cell assay; conditions: 48 h
[15] = test system: HCV genotype 1; assay: 14-day multiple-dose study in Hepatitis C positive subjects: plasma HCV RNA (Example 5); format: in vivo, human; conditions: for mean HCV RNA drop: 750 mg q8h
Description: Detection of HCV RNA can be done, e.g., by using the Roche COBAS TaqMan HCV/HPS assay, available from Roche molecular Diagnostics. Subjects (or patients) receiving 750 mg of VX-950 every eight hours for 14 days achieved a median reduction in HCV-RNA of greater than 4 log10 (i.e., 10,000-fold decrease) at the end of the treatment. […] See Example 5 and FIGS. 3-5.
as §1
The HCV positive subjects were tested post-treatment to monitor HCV RNA levels' return to baseline.

[16] = test system: HCV; conditions: monotherapy, fraction of cases; cited from earlier work
[17] = at the completion of the 14-day dosing period
[18] = of the 8 subjects receiving 750 mg q8h

CCC[C@H](NC(=O)[C@@H]1[C@H]2CCC[C@H]2CN1C(=O)[C@@H](NC(=O)[C@@H](NC(=O)c1cnccn1)C1CCCCC1)C(C)(C)C)C(=O)C(=O)NC1CC1 [VX-950]
tolerability of single doses [1]: well tolerated at all dose levels
effect on WT HCV protease mediated suppression of IFNβ promoter activation [2]: overcomes the WT HCVpro mediated suppression of IFNβ promoter activation
Tmax [3]: 3 h
median ALT value ([4]; 450 mg q8h, day 12, 5 out of 10 samples missing (range 25-125)): 38 U/I
effect on ALT levels in vivo ([4]; 14 days dosing): decreases
effect on AST (aspartate aminotransferase) levels ([4]; upon administration): decreased
tolerability of multiple doses ([5]; 450 mg, 750 mg or 1250 mg, 5 or 14 days): well tolerated at all dose levels
trough levels of VX-950 in plasma ([5]; about 750 mg three times a day, every 8 hours, compared with other regimens): highest trough levels
SVR after a 2 week treatment of VX-950 ([6]; 2 week treatment): SVR was achieved in a patient
HCV RNA levels at the last off-study follow-up day ([6]; 12 weeks after the last on-study follow-up, patients who continued with Peg-IFN-2a/RBV): undetectable in all patients
antiviral activity ([6]; 14 days): rapid and profound antiviral activity
patients who achieved SVR ([6]; treated for 24 weeks): 7 of 10
patients who achieved SVR ([6]; treated for 48 weeks): 3 of 5
patients in whom SVR was achieved ([6]; 14 days of VX-950 optionally in combination with Peg-INF, followed by Peg-INF/RBV for an additional 22 or 46 weeks): 10 of 15
decrease of HCV RNA levels, generally [6, 17]: at least 2 log10
decrease of HCV RNA levels, in some cases [6, 17]: at least 4 log10
patients with undetectable HCV RNA ([6]; at week 12): 5 of 7
patients with undetectable HCV RNA ([6]; at week 24, all patients who received VX-950 (alone or with PEG-IFN)): 15
Undetectable HCV RNA at 24-week off study peg-IFN-2a/RBV treatment ([6]; group sizes N 7 / 8 / 4): 7* N
Undetectable HCV RNA at 12 weeks follow-up after stopping peg-IFN-2a/RBV ([6]; patients who stopped Peg-IFN-2a/RBV at week 24): 2 of 4 and 2/4
predicted average liver concentration as multiple of replicon assay IC50 [7]: up to 113 fold
predicted average liver concentration as multiple of replicon assay IC90 [7]: up to 57 fold
effect on in vitro cleavage of TRIF by NS3 protease [8]: inhibits in vitro cleavage of TRIF
mean neopterin level ([9]; 750 mg q8h, day 14 (baseline 10.48±0.84 nmol/L; ULN 7.7)): 7.32 ± 0.48 nmol/L
effect on neopterin levels in vivo ([9]; 14 days dosing): decreases
IC50 [10]: 0.196 µg/mL (≈ 0.288 µM)
oral bioavailability ([11]; po): orally bioavailable
VX-950 eliminated unchanged in the urine ([11]; male): Less than 2%
tolerability [12]: well tolerated
effect on elevated ALT levels in an animal model [13]: ameliorates elevated ALT levels
IC50 ([14]; read-out: IC50 in the replicon assay): ~0.24 µg/mL (≈ 0.353 µM)
IC90 ([14]; read-out: IC90 in the replicon assay): ~0.476 µg/mL (≈ 0.7 µM)
Maximum change from baseline in HCV RNA (log10 IU/mL): subjects in category >−1 to <0 ([15]; 450 mg q8h (n = 10)): 0 n (%)
Maximum change from baseline in HCV RNA (log10 IU/mL): subjects in category >−2 to ≦−1 ([15]; 450 mg q8h (n = 10)): 0 n (%)
Maximum change from baseline in HCV RNA (log10 IU/mL): subjects in category >−3 to ≦−2 ([15]; 450 mg q8h (n = 10)): 1 (10.0) n (%)
Maximum change from baseline in HCV RNA (log10 IU/mL): subjects in category >−4 to ≦−3 ([15]; 450 mg q8h (n = 10)): 7 (70.0) n (%)
Maximum change from baseline in HCV RNA (log10 IU/mL): subjects in category >−5 to ≦−4 ([15]; 450 mg q8h (n = 10)): 0 n (%)
Maximum change from baseline in HCV RNA (log10 IU/mL): subjects in category ≧−5 ([15]; 450 mg q8h (n = 10)): 2 (20.0) n (%)
median reduction in HCV-RNA ([15]; 750 mg every eight hours, end of 14 days): greater than 4 log10
Maximum change from baseline in HCV RNA (log10 IU/mL): subjects in category >−1 to <0 ([15]; 750 mg q8h (n = 8)): 0 n (%)
Maximum change from baseline in HCV RNA (log10 IU/mL): subjects in category >−2 to ≦−1 ([15]; 750 mg q8h (n = 8)): 0 n (%)
Maximum change from baseline in HCV RNA (log10 IU/mL): subjects in category >−3 to ≦−2 ([15]; 750 mg q8h (n = 8)): 0 n (%)
Maximum change from baseline in HCV RNA (log10 IU/mL): subjects in category >−4 to ≦−3 ([15]; 750 mg q8h (n = 8)): 3 (37.5) n (%)
Maximum change from baseline in HCV RNA (log10 IU/mL): subjects in category >−5 to ≦−4 ([15]; 750 mg q8h (n = 8)): 3 (37.5) n (%)
Maximum change from baseline in HCV RNA (log10 IU/mL): subjects in category ≧−5 ([15]; 750 mg q8h (n = 8)): 2 (25.0) n (%)
mean HCV RNA drop ([15]; day 3): 3.6 log10
mean HCV RNA drop ([15]; day 14): 4.3 log10
Maximum change from baseline in HCV RNA (log10 IU/mL): subjects in category >−1 to <0 ([15]; 1250 mg q12h (n = 10)): 0 n (%)
Maximum change from baseline in HCV RNA (log10 IU/mL): subjects in category >−2 to ≦−1 ([15]; 1250 mg q12h (n = 10)): 0 n (%)
Maximum change from baseline in HCV RNA (log10 IU/mL): subjects in category >−3 to ≦−2 ([15]; 1250 mg q12h (n = 10)): 1 (10.0) n (%)
Maximum change from baseline in HCV RNA (log10 IU/mL): subjects in category >−4 to ≦−3 ([15]; 1250 mg q12h (n = 10)): 9 (90.0) n (%)
Maximum change from baseline in HCV RNA (log10 IU/mL): subjects in category >−5 to ≦−4 ([15]; 1250 mg q12h (n = 10)): 0 n (%)
Maximum change from baseline in HCV RNA (log10 IU/mL): subjects in category ≧−5 ([15]; 1250 mg q12h (n = 10)): 0 n (%)
drop in viral load in every patient ([15]; all dose groups, during administration): at least 2 log10
median reduction of HCV-RNA ([15]; each of the other two dose groups (450 mg q8h, 1250 mg q12h), end of 14 days): greater than 2 log10
effect on HCV replication in humans ([15]; human, in vivo): effective in inhibiting HCV replication
subjects with HCV RNA below the limit of detection (LLD 10 IU/mL) [15, 18]: 2
subjects with HCV RNA below the limit of quantitation (LLQ 30 IU/mL) [15, 18]: 4
subjects with a 3 log10 reduction in HCV-RNA ([15]; within the first three days of treatment): 26 of the 28
reduction in HCV-RNA achieved by every subject ([15]; within the first three days of treatment, all dose groups): greater than 2 log10

interferon alfa
long term remission [16]: ~25%
